The values that follow come from US20260256763A1, “Aromatic Amide Derivative, And Preparation Method Therefor And Use Thereof” (Zhejiang Hisun Pharmaceutical Co., Ltd., priority 2023, published 2026).

Structures are written as SMILES. pIC50: −log10 of the molar value.

The test system of assay [1] is OVCAR-3 cells. The assay can be described thus: Inhibition on OVCAR-3 cell proliferation (CellTiter-Glo). The format is cell-based. Particulars: Homo sapiens, OVCAR-3 cells (TP53 R248Q mutation), 72 hours. In outline:
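OVCAR-3 (TP53 R248Q) cells seeded at 1000/well overnight, then treated 72 h at 37 °C with compound at final 1000 nM–0.015 nM. CellTiter-Glo luminescence read; inhibition versus 0.3% DMSO control, IC50 by nonlinear regression on log concentration.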
(In ATP-based viability assays light output follows the ATP content of the culture.)

The subject of assay [2] is OVCAR-3 human ovarian adenocarcinoma tumor fragment xenograft. Put plainly: Pharmacodynamic testing in OVCAR-3 tumor fragment xenograft model. Type of assay: in vivo, BALB/c nude mice. Particulars: 16 days after administration; for Relative tumor volume (x ± S) / Tumor volume (x ± S): mean ± standard error; for Tumor volume (x ± S): in mm³. The method, then:
An anti-tumor effect of Compound 1 of the present invention in a BALB/c nude mouse animal model with subcutaneous OVCAR-3 human ovarian adenocarcinoma tumor fragment xenograft was evaluated.
BALB/c nude mice, female, 6-7 weeks old, purchased from Jiangsu Gempharmatech Biotechnology Co., Ltd.
Mice in a solvent control group were given DMA:CrEL:5% GS=10:10:80 (v:v:v).
AMG650: a proper amount of AMG-650 was weighed, proper amounts of DMA, CrEL and 5% GS were added in sequence, and the obtained system was evenly mixed by ultrasonic vortex to prepare 0.8 mg/mL and 0.4 mg/mL preparations respectively, wherein DMA, CrEL and 5% GS=10:10:80 (v:v:v).
Compound 1: a proper amount of Compound 1 was weighed, proper amounts of DMA, CrEL and 5% GS were added in sequence, and the obtained system was evenly mixed by ultrasonic vortex to prepare 0.8 mg/mL and 0.4 mg/mL preparations respectively, wherein DMA, CrEL and 5% GS=10:10:80 (v:v:v).
An appropriate OVCAR-3 tumor-bearing animal was selected, a 1 mm×1 mm×1 mm OVCAR-3 tumor fragment was acquired aseptically and placed into normal saline for later use, which was used for subcutaneous tumor inoculation in a right side of back of the BALB/c nude mice.
About 1 mm×1 mm×1 mm OVCAR-3 tumor fragment was subcutaneously inoculated in the right side of back of the female BALB/c nude mice. When an average tumor volume reached about 100-250 mm^3, the mice were randomly grouped according to the tumor size, with 6 mice in each group.
Animals in each group were given the test compound once per day according to an animal weight at a fixed time every day by oral administration (po), the animals started to be administered with the test compound for the first time on the day of grouping for 22 consecutive days, and the animal weight was recorded every day. • The 1st group (G1) was a solvent control group; • The 2nd group (G2) and the 3rd group (G3) were orally administered with AMG-650 at administration dosages of 8 mg/kg and 4 mg/kg respectively once per day (QD); and • The 4th group (G4) and the 5th group (G5) were orally administered with Compound 1 at administration dosages of 8 mg/kg and 4 mg/kg respectively once per day (QD).
Tumor formation at an inoculation site of the animals in each group was observed, and a tumor volume was measured twice per week, and calculated according to the following formula: • a tumor volume (TV), a relative tumor volume (RTV), a relative tumor proliferation rate (T/C) and a relative tumor inhibition rate (TGI) were calculated according to the following formulas:
TV (tumor volume)=½×a×b^2, wherein a and b respectively represented a tumor length and a tumor width; (1)
RTV (relative tumor volume)=Vt/V0, wherein V0 was a tumor volume measured at the time of grouping, and Vt was a tumor volume in each measurement; (2)
T/C (%)=TRTV/CRTV×100%, wherein TRTV was RTV of a treatment group, and CRTV was RTV of a solvent control group; and (3)
TGI %=(1−T/C)×100%, wherein T and C were relative tumor volumes of the treatment group and the solvent control group at a specific time point respectively. (4)

Regarding `CCS(=O)(=O)Nc1ccc(C(=O)Nc2cc3c(c(N4CCC(F)(F)CC4)c2)OCC3)c(N2CCC3(CC2)CC3)c1` [Example 1, N-(7-(4,4-difluoropiperidin-1-yl)-2,3-dihydrobenzofuran-5-yl)-4-(ethylsulfonamido)-2-(6-azaspiro[2.5]octan-6-yl)benzamide], the pIC50 in assay [1] was 9.12. Besides, in assay [2] (4 mg/kg po QD), the TGI came out at 81.3%, the “Relative tumor volume (x ± S)” value amounted to 0.61 ± 0.11 and the “Tumor volume (x ± S)” value came to 120 ± 27. In assay [2] (8 mg/kg po QD), the TGI is 95.2%, the “Relative tumor volume (x ± S)” value amounted to 0.16 ± 0.03 and the “Tumor volume (x ± S)” value is 31 ± 8.

In general, pIC50 refers to the negative decadic logarithm of the IC50, by convention in mol/L. As a reminder, the TGI is how far tumour growth fell short of that in controls. A lower TGI goes with a weaker effect on the tumour.
